Measurements reported in patent publication US8420852B2, “Phospholipase A2 inhibitors and their use in treating neurological injury and disease” (The Regents of the University of California, priority 2007, dated 2013).

Columns and labels:
sPLA2 (GV) = biological target: T1, sPLA2 (GV) (Homo sapiens, UniProt P39877); assay: sPLA2 inhibition assay; format: biochemical; conditions: at 0.091 mol fraction
T1 sequence (P39877 21-138): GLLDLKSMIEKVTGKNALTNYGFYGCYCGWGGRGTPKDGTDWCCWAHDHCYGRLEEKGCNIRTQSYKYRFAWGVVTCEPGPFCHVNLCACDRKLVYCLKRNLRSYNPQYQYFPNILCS
Procedure: The compounds described herein were tested for inhibition of PLA2s in in vitro assay systems. The data, summarized in the Examples, are represented as XI(50) values unless otherwise noted. XI(50) is defined as the inhibitor concentration that produced 50% inhibition. XI(50) is used as opposed to the more common IC50 because GIVA and GVIA PLA2 are active at a two-dimensional lipid interface rather than in three-dimensional solution. (Deems, Anal. Biochem., 287:1-16, 2000). For the groups that received delayed treatment after symptoms occurred, mice were treated with daily intraperitoneal injections of AX059 starting from the first day of clinical symptoms, beginning on day 11; and AX115 starting from the first day of clinical peak (i.e., score 4), beginning of day 14. All inhibitors were administered for 2 weeks. The selectivity of the compounds for the different PLA2s is shown as the percentage inhibition in Table 1. The XI(50) is the mole fraction of the inhibitor in the total substrate interface required to inhibit the enzyme by 50%. PLA2 inhibitors. It has been previously reported that long chain 2-oxoamides based on gamma-amino acids are potent inhibitors of cPLA2 (GIVA). […] A 2-oxoamide based on a glycine methyl ester, AX115, inhibits sPLA2 (GV) as well as cPLA2 (GIVA) and iPLA2 (GVIA). […]

GIIA PLA2 = biological target: T2, GIIA PLA2 (Homo sapiens, UniProt P14555); assay: vesicle assay for GIIA PLA2; format: biochemical
T2 sequence (P14555 21-144): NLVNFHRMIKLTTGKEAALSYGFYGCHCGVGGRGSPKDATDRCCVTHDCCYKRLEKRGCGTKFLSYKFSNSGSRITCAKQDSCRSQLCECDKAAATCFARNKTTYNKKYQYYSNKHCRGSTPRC
From the text: Vesicle assays have generally been employed for this enzyme, but they have limitations for in vitro comparison of inhibitor potency.

CCCCCCCCCCCCCCC(=O)C(=O)NCC(=O)OC [AX115]
Inhibition sPLA2 GIVA/GV* (sPLA2 (GV)): 52% | inhibition of GIIA compared with GV PLA2 (GIIA PLA2): comparable inhibition
